Molecules are shown by their SMILES. Structures can show the parent of a compound that is named as a salt. Where two headings read alike, the source gives them in different places.

The text below walks through data of US5726177A, “Indole-derived arylpiperazines as ligands for 5HT1 -like, 5HT1B and 5HT1D receptors” (Pierre Fabre Medicament, priority 1993, dated 1998).

In assay [1] the target is human 5HT1Da receptor (Homo sapiens, UniProt P28221). Kind of assay: Binding to cloned human 5HT1Da receptor. As to the method:
(§1) Human 5HT1Da and 5HT1Db receptors were cloned according to the sequences published by M. Hamblin and M. Metcalf, Mol. Pharmacol., 40, 143 (1991) and Weinshenk et al., Proc. Natl. Acad. Sci., 89, 3630 (1992).
(§2) The transient transfection and the stable transfection of the genes of these receptors was carried out in Cos-7 and CHO-K1 cell lines by using an electroporator.
(§3) The binding of the derivatives of the present invention with human 5HT1Da, 5HT1Db and 5HT1A receptors was studied according to the method described by P. Pauwels and C. Palmier (Neuropharmacology, 33, 67, 1994).
(§4) The incubation media for these binding measurements comprise 0.4 ml of cell membrane preparation, 0.05 ml of a tritiated ligand [[3H]-SCT (final concentration: 2 nM) for the 5HT1Da and 5HT1Db receptors and [3H]-80H-DPAT (final concentration: 1 nM) for the 5HT1A receptor] and 0.05 ml of the molecule to be tested (final concentrations from 0.1 nM to 1000 nM) or 10 μM (final concentration) of serotonin (5HT1Da and 5HT1Db) or 1 μM (final concentration) of spiroxatrin (5HT1A ).

For assay [2], the target named is T1, human 5HT1Db receptor (Homo sapiens, UniProt P28222). Description: Binding to cloned human 5HT1Db receptor. As for the experimental part: as §1, §2, §3, §4
Assay [3] has as its target T2, human 5HT1A receptor (Homo sapiens, UniProt P08908).
T2 sequence (P08908 1-422): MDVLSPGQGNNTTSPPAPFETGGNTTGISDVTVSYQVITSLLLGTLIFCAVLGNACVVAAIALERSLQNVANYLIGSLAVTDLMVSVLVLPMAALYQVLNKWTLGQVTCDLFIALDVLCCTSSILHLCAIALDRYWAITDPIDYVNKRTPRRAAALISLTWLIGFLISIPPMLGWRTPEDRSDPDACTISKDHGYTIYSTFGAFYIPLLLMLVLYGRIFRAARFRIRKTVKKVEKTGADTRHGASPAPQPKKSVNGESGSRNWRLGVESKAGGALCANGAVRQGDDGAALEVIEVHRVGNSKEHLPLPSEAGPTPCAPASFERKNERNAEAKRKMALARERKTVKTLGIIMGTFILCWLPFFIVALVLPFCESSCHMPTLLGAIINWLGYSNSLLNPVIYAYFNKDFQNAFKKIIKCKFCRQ
Kind of assay: Binding to human 5HT1A receptor (HeLa HA7 cell line). As to the method:
The HeLa HA7 cell line expressing the 5HT1A human receptor was obtained from Tulco (Duke Univ., Durham, N.C., USA) and cultured according to the method of Fargin et al., J. Biol. Chem., 264, 14848 (1989).
as §3, §4

For assay [4], the target named is T1, human 5HT1Db receptor. Kind of assay: cell-based. As for the experimental part:
as §1, §2
The inhibition of the formation of cyclic AMP (stimulated by forskolin) mediated by the human 5HT1Db receptor was studied in CHO-K1 cells transfected by the receptor according to the technique described previously for the 5HT1B receptor (P. Pauwels and C. Palmier, Neuropharmacology, 33, 67, 1994).

[5] abbreviates: human cloned receptor, [3H] ligand 2 nM, read-out: Ki 5HT1Da.
The mark [6] stands for this setting: human cloned receptor, [3H] ligand 2 nM, read-out: Ki 5HT1Db.
Where [7] appears, read: HeLa HA7 cells, [3H]-DPAT ligand 1 nM, read-out: Ki 5HT1A.
Setting [8] is: human 5HT1Db, CHO-K1 cells, read-out: EC50 (Inhibition of the 5HT1Db cyclase stimulated by forskolin).

Chain of human 5HT1Da receptor (P28221 whole entry): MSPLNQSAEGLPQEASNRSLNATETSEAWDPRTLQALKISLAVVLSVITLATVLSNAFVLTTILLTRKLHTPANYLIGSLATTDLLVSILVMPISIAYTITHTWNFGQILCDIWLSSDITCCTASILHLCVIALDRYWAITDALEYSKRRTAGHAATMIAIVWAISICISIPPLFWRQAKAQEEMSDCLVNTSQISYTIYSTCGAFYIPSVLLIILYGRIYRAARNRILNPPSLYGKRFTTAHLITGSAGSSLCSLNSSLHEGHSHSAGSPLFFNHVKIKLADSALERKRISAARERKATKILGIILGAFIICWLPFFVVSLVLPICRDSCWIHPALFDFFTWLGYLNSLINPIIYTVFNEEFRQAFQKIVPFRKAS
T1 sequence (P28222 whole entry): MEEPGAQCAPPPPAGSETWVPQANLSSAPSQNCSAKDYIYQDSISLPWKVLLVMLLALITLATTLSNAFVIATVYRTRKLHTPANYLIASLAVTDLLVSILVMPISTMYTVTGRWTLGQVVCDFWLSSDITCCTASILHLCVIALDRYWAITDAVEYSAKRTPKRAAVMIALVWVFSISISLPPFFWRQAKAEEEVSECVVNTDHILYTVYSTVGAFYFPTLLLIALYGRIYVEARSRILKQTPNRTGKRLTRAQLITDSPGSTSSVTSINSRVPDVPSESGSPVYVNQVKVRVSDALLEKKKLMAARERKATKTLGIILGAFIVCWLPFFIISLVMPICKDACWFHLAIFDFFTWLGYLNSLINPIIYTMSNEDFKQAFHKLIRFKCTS

In general, Ki refers to the equilibrium dissociation constant of an inhibitor or competing ligand from its target. For orientation: EC50 means the midpoint of the concentration-response curve. `NCCc1c[nH]c2ccc(OCC(=O)N3CCN(c4ccc(NS(=O)(=O)c5ccc([N+](=O)[O-])cc5)cc4)CC3)cc12` [Example 26, N-[4-(4-{2-[3-(2-Aminoethyl)-1H-indol-5-yloxy]acetyl}piperazin-1-yl)phenyl]-4-nitrophenylsulfonamide hydrochloride]: the Ki was found to be 0.25 nM in assay [1] (setting [5]), 0.5 nM in assay [2] (setting [6]) and 16.5 nM in assay [3] (setting [7]). In assay [4] (setting [8]), the EC50 was 6.5 nM.

In the case of `NCCc1c[nH]c2ccc(OCC(=O)N3CCN(c4ccc(NC(=O)Oc5ccccc5)cc4)CC3)cc12` [Example 33, N-[4-(4-{2-[3-(2-Aminoethyl)-1H-indol-5-yloxy]acetyl}-piperazin-1-yl)phenyl]phenylcarbamate], the results for the Ki in assay [1], in assay [2] and in assay [3] were 2.8 nM, 2 nM and 39 nM, respectively. In addition, a half-maximal response in assay [4] (EC50) required 9 nM.

Take `CS(=O)(=O)Nc1ccc(N2CCN(CCOc3ccc4[nH]cc(CCN)c4c3)CC2)cc1` [Example 41, N-[4-(4-{2-[3-(2-Aminoethyl)-1H-indol-5-yloxy]ethyl}piperazin-1-yl)phenyl]methanesulfonamide hydrochloride]: the Ki in assay [1] (setting [5]) is 1.1 nM; in assay [2] (setting [6]), 0.7 nM; in assay [3] (setting [7]) it was 28 nM. For the same compound, the EC50 in assay [4] (setting [8]) is 2.6 nM.
